Assays:
Format in all cases: physicochemical
[1] = Enantiomeric (chiral) stability of the compound in buffer solutions, chiral HPLC assay
Protocol: (§1) Stability for N-{4-(2,2-dimethyl-propionyl)-(5R)-5-[(2-ethylamino-ethanesulfonylamino)-methyl]-5-phenyl-4.5-dihydro-[1,3,4]thiadiazol-2-yl}-2,2-dimethyl-propionamide (the compound) is assessed at 0.1 mg/mL in various buffers adjusted from pH 2 through 8 with various pH adjusting agents (e.g. 0.1 and 1 N HCl; 0.1, 1, and 5 N NaOH) and at different storage conditions (e.g. 5° C., 25° C., and 40° C. at 75% relative humidity). Hereinafter, the 40° C. at 75% relative humidity storage condition will be referred to as 40° C. These buffers include 10 mM and 50 mM tartrate (40° C.), 10 mM phosphate (25 and 40° C.), 50 mM phosphate (40° C.), and 10 mM citrate (25 and 40° C. Additional solution stability studies include 10 mM citrate (pH 8; 5° C., 25° C., and 40° C.) and 10 mM NaCl, 10 mM sodium sulfate, 10 mM mesylate, 10 mM tartrate, 10 mM phosphate, and 10 mM citrate (pH 8, 40° C). Lyophilized stability studies for N-{4-(2,2-dimethyl-propionyl)-(5R)-5-[(2-ethylamino-ethanesulfonylamino)-methyl]-5-phenyl-4,5-dihydro-[1,3,4]thiadiazol-2-yl}- 2-dimethyl-propionamide involve solutions containing 10 mM tartrate buffer at pH 3 which are lyophilized and subjected to storage at 5° C., 25° C., and 40 ° C. for 1, 3, and 6 months. Finally, the enantiomeric stability for N-{4-(2,2-dimethyl-propionyl)-(5R)-5-[(2-ethylamino-ethanesulfonylamino-methyl]-5-phenyl-4,5-dihydro-[1,3,4]thiadiazol-2-yl}-2,2-dimethyl-propionamide is assessed when dissolved in various organic solvents and aqueous/solvent mixtures, including methanol, ethanol, acetonitrile, acetone, ethyl acetate, and 50% ethanol/50% water (all at 25° C. and 40° C.) and in 1-octanol (25° C.).
(§2) The enantiomeric stability is measured with a chiral HPLC assay employing polar ionic separation conditions. Those conditions include Column: Chirobiotic T, 150×4.6 mm; Detector UV, 290 nm; Flow: 0.225-0.35 mL/min., adjust to optimize chiral separation; injection: 2 μL-10 μL; Column Temperature: 45° C.; Mobile Phase: 0.01% TEA, 1.0% HOAc, 1.0% water (DIW) in methanol. Enantioselectivity is very sensitive to mobile phase composition, specifically the acid:base ratio. For this reason, the TEA and HOAc additives are accurately measured and then delivered by pipette into the mobile phase while stirring.

[2] = Lyophilized stability study (10 mM tartrate buffer pH 3, lyophilized and stored), chiral conversion
Protocol: as §1, §2

[3] = Enantiomeric stability when dissolved in organic solvents and aqueous/solvent mixtures
Protocol: as §1
The enantiomeric stability is measured with a chiral HPLC assay employing polar ionic separation conditions. […] For this reason, the TEA and HOAc additives are accurately measured and then delivered by pipette into the mobile phase while stirring.

## CCNCCS(=O)(=O)NC[C@@]1(c2ccccc2)SC(NC(=O)C(C)(C)C)=NN1C(=O)C(C)(C)C [the compound, N-{4-(2,2-dimethyl-propionyl)-(5R)-5-[(2-ethylamino-ethanesulfonylamino)-methyl]-5-phenyl-4,5-dihydro-[1,3,4]thiadiazol-2-yl}-2,2-dimethyl-propionamide]
[1]; 10 mM citrate buffer, pH 2.1, at least 96 hours, 40° C.
  chiral conversion of the compound: no chiral conversion
[1]; 10 mM citrate buffer, pH 2.1, at least 120 hours, 25° C.
  chiral conversion of the compound: no chiral conversion
[1]; 10 mM citrate buffer, pH 3.3, at least 96 hours, 40° C.
  chiral conversion of the compound: no chiral conversion
[1]; 10 mM citrate buffer, pH 3.3, at least 120 hours, 25° C.
  chiral conversion of the compound: no chiral conversion
[1]; 10 mM citrate buffer, pH 4.2, at least 96 hours, 40° C.
  chiral conversion of the compound: no chiral conversion
[1]; 10 mM citrate buffer, pH 4.2, at least 120 hours, 25° C.
  chiral conversion of the compound: no chiral conversion
[1]; 10 mM citrate buffer, pH 8.4, 24 hours, 25° C.
  % of the compound remains: 95.8%
[1]; 10 mM citrate buffer, pH 8.4, 120 hours, 5° C.
  % of the compound remains: 99.3%
[1]; 10 mM sodium phosphate buffer, pH 2.3, at least 120 hours, 25° C.
  chiral conversion of the compound: no chiral conversion
[1]; 10 mM sodium phosphate buffer, pH 2.3, at least 120 hours, 40° C.
  chiral conversion of the compound: no chiral conversion
[1]; 10 mM sodium phosphate buffer, pH 3.4, at least 120 hours, 25° C.
  chiral conversion of the compound: no chiral conversion
[1]; 10 mM sodium phosphate buffer, pH 3.4, at least 120 hours, 40° C.
  chiral conversion of the compound: no chiral conversion
[1]; 10 mM sodium phosphate buffer, pH 5.4, at least 120 hours, 25° C.
  chiral conversion of the compound: no chiral conversion
[1]; 10 mM sodium phosphate buffer, pH 5.4, at least 120 hours, 40° C.
  chiral conversion of the compound: no chiral conversion
[1]; 10 mM tartrate buffer, pH 2.1, at least 96 hours, 40° C., 0.1 mg/mL
  chiral conversion of the compound: no chiral conversion
[1]; 10 mM tartrate buffer, pH 3.1, at least 96 hours, 40° C., 0.1 mg/mL
  chiral conversion of the compound: no chiral conversion
[1]; 10 mM tartrate buffer, pH 4,1, at least 96 hours, 40° C., 0.1 mg/mL
  chiral conversion of the compound: no chiral conversion
[1]; 10 mM tartrate buffer, pH 6.2, 96 hours, 40° C.
  % of the compound remains: 97.5%
[1]; 10 mM tartrate buffer, pH 8.7, 96 hours, 40° C.
  % of the compound remains: 60.3%
[1]; 50 mM phosphate buffer, pH 2.2, at least 96 hours, 40° C.
  chiral conversion of the compound: no chiral conversion
[1]; 50 mM phosphate buffer, pH 3.3, at least 96 hours, 40° C.
  chiral conversion of the compound: no chiral conversion
[1]; 50 mM phosphate buffer, pH 5.0, at least 96 hours, 40° C.
  chiral conversion of the compound: no chiral conversion
[1]; 50 mM tartrate buffer, pH 2.0, at least 120 hours, 40° C., 0.1 mg/mL
  chiral conversion of the compound: no chiral conversion
[1]; 50 mM tartrate buffer, pH 2.9, at least 120 hours, 40° C., 0.1 mg/mL
  chiral conversion of the compound: no chiral conversion
[1]; 50 mM tartrate buffer, pH 3.9, at least 120 hours, 40° C., 0.1 mg/mL
  chiral conversion of the compound: no chiral conversion
[1]; citrate buffer, pH 6.2, 96 hours, 40° C.
  % of the compound remains: 98.2%
[1]; citrate buffer, pH 6.2, 120 hours, 25° C.
  % of the compound remains: 99.9%
[2]; lyophilized formulation pH 3.0, 1 month, 5° C.
  chiral conversion of the compound: no chiral conversion
[2]; lyophilized formulation pH 3.0, 1 month, 25° C.
  chiral conversion of the compound: no chiral conversion
[2]; lyophilized formulation pH 3.0, 1 month, 40° C. (75% relative humidity)
  chiral conversion of the compound: no chiral conversion
[2]; lyophilized formulation pH 3.0, 3 months, 5° C.
  chiral conversion of the compound: no chiral conversion
[2]; lyophilized formulation pH 3.0, 3 months, 25° C.
  chiral conversion of the compound: no chiral conversion
[2]; lyophilized formulation pH 3.0, 3 months, 40° C. (75% relative humidity)
  chiral conversion of the compound: no chiral conversion
[2]; lyophilized formulation pH 3.0, 6 months, 5° C.
  chiral conversion of the compound: no chiral conversion
[2]; lyophilized formulation pH 3.0, 6 months, 25° C.
  chiral conversion of the compound: no chiral conversion
[2]; lyophilized formulation pH 3.0, 6 months, 40° C. (75% relative humidity)
  chiral conversion of the compound: no chiral conversion
[3]; in 50% ethanol/50% water (25° C. and 40° C.)
  stability / conversion to the S enantiomeric form, compared with the other solvents tested: less stable
[3]; in acetonitrile (25° C. and 40° C.)
  stability / conversion to the S enantiomeric form, compared with the other solvents tested: less stable
[3]; in ethyl acetate (25° C. and 40° C.)
  stability / conversion to the S enantiomeric form, compared with the other solvents tested: less stable
